Results on one compound are retold here after ChEMBL document CHEMBL6120933, “Improving Anti-HIV activity and pharmacokinetics of enfuvirtide (T20) by modification with oligomannose” (Eur J Med Chem, 2024).

This test relates to Human immunodeficiency virus 1. Put plainly: Antiviral activity against HIV-1 pseudovirus infected in HEK293T cell transfected with DC-SIGN and luciferase assessed as inhibition of viral entry into cells at 500 uM preincubated with cells for 2 hrs followed by virus addition and measured after 4 hrs by p24 ELISA relative to control. To be noted: Human immunodeficiency virus 1, HEK-293T, time 6 hrs. The test is classed as functional.

The structures appear in SMILES notation.

Broadly, the inhibition is the change of the read-out against control, counted positive when it falls. Turning to `[N-]=[N+]=NCCO[C@H]1O[C@H](CO[C@H]2O[C@H](CO)[C@@H](O)[C@H](O)[C@@H]2O[C@H]2O[C@H](CO)[C@@H](O)[C@H](O)[C@@H]2O)[C@@H](O)[C@H](O[C@H]2O[C@H](CO)[C@@H](O)[C@H](O)[C@@H]2O[C@H]2O[C@H](CO)[C@@H](O)[C@H](O)[C@@H]2O)[C@@H]1O`, the inhibition at 500 µM was 18%.
